Test results from DBAASP.
Converted amounts (≈) assume the structure as drawn.

What was measured:
Test in all cases: ≥ marks a high value that may be exact or a test limit, other limits are often not marked, values filed in µg/mL are converted to µM
[1] = tested on: Candida krusei ATCC 6258
[2] = tested on: Candida albicans SC5314
[3] = tested on: Candida parapsilosis ATCC 22019
[4] = tested on: Candida albicans ATCC 90028
[5] = tested on: Staphylococcus aureus ATCC 700699
[6] = tested on: Klebsiella pneumoniae ATCC 700603
[7] = tested on: Escherichia coli ATCC 25922
[8] = tested on: Pseudomonas aeruginosa ATCC 27853
[9] = tested on: Staphylococcus aureus ATCC 29213
[10] = tested on: Staphylococcus aureus ATCC 33591
[11] = tested on: Escherichia coli ATCC 2592
[12] = tested on: Micrococcus luteus ATCC 9341
[13] = tested on: Pseudomonas aeruginosa ATCC 9027
[14] = tested on: Candida albicans ATCC 36232
[15] = tested on: Enterobacter cloacae ATCC 13047

Row | Structure (SMILES) | MIC [4] | MIC [5] | MIC [6] | MIC [7] | MIC [8] | MIC [9] | MIC [10] | also measured
1 | CC[C@H](C)[C@H](NC(=O)[C@@H](NC(=O)CN)C(C)C)C(=O)N[C@@H](CCCCN)C(=O)N[C@@H](C)C(=O)N[C@@H](C)C(=O)N[C@@H](CCCCN)C(=O)N[C@@H](CCCCN)C(=O)N[C@H](C(=O)N[C@H](C(=O)N[C@@H](CCCCN)C(=O)N[C@H](C(=O)N[C@@H](CC(C)C)C(=O)N[C@@H](CCCCN)C(=O)N[C@@H](CC(N)=O)C(=O)N[C@@H](CC(C)C)C(=O)N[C@@H](Cc1ccccc1)C(N)=O)C(C)C)C(C)C)C(C)C [GVIKAAKKVVKVLKNLF] | ≥ 34.5 µM |  |  |  |  |  |  | MIC [1]: 17.2 µM (≈ 32 µg/mL); MIC [2]: 17.2 µM (≈ 32 µg/mL); MIC [3]: 17.2 µM (≈ 32 µg/mL)
2 | CC[C@H](C)[C@H](NC(=O)[C@H](C)NC(=O)[C@H](CCCCN)NC(=O)[C@H](C)NC(=O)[C@H](C)NC(=O)CNC(=O)[C@H](CCCCN)NC(=O)[C@H](CC(C)C)NC(=O)[C@@H](NC(=O)[C@H](CC(=O)O)NC(=O)[C@@H](NC(=O)[C@@H](NC(=O)CN)C(C)C)C(C)C)[C@@H](C)CC)C(=O)N[C@@H](C)C(=O)NCC(=O)N[C@@H](Cc1cnc[nH]1)C(=O)N[C@@H](CC(C)C)C(=O)N[C@@H](C)C(=O)N[C@@H](CO)C(=O)N[C@@H](CCCCN)C(=O)N[C@H](C(=O)N[C@@H](CCSC)C(=O)N[C@@H](CC(N)=O)C(=O)N[C@@H](CCCCN)C(=O)N[C@@H](CC(C)C)C(N)=O)C(C)C [GVVDILKGAAKAIAGHLASKVMNKL] |  | ≥ 50 µM | 25 µM (≈ 62.6 µg/mL) | 3.12 µM (≈ 7.81 µg/mL) | 50 µM (≈ 125 µg/mL) | 100 µM (≈ 250 µg/mL) | 25 µM (≈ 62.6 µg/mL) | 
3 | CC[C@H](C)[C@H](NC(=O)[C@H](CC(=O)O)NC(=O)[C@H](CCCCN)NC(=O)[C@H](C)NC(=O)[C@H](C)NC(=O)CNC(=O)[C@H](CCCCN)NC(=O)[C@H](CC(C)C)NC(=O)[C@@H](NC(=O)[C@H](CC(=O)O)NC(=O)[C@@H](NC(=O)[C@@H](NC(=O)CN)C(C)C)C(C)C)[C@@H](C)CC)C(=O)N[C@@H](C)C(=O)NCC(=O)N[C@@H](Cc1cnc[nH]1)C(=O)N[C@@H](CC(C)C)C(=O)N[C@@H](C)C(=O)N[C@@H](C)C(=O)N[C@@H](CCCCN)C(=O)N[C@H](C(=O)N[C@@H](CCSC)C(=O)N[C@@H](CC(N)=O)C(=O)N[C@@H](CCCCN)C(=O)N[C@@H](CC(C)C)C(N)=O)C(C)C [GVVDILKGAAKDIAGHLAAKVMNKL] |  | ≥ 100 µM | 100 µM (≈ 253 µg/mL) | 25 µM (≈ 63.3 µg/mL) | 100 µM (≈ 253 µg/mL) | > 100 µM | ≥ 100 µM | 
4 | CC(C)C[C@H](NC(=O)[C@H](CS)NC(=O)[C@H](Cc1cnc[nH]1)NC(=O)[C@H](C)NC(=O)[C@H](C)NC(=O)[C@H](CS)NC(=O)[C@H](C)NC(=O)[C@H](C)NC(=O)[C@@H](N)CCCCN)C(=O)N[C@@H](Cc1c[nH]c2ccccc12)C(=O)N[C@@H](CCCN=C(N)N)C(N)=O [KAACAAHCLWR] |  |  |  |  |  |  |  | MIC [11]: ≥ 163 µM; MIC [12]: ≥ 163 µM; MIC [13]: > 163 µM; MIC [14]: ≥ 163 µM
5 | CC[C@H](C)[C@H](NC(=O)[C@H](C)NC(=O)[C@H](CCCCN)NC(=O)[C@@H](NC(=O)[C@@H](NC(=O)[C@@H](N)C(C)C)[C@@H](C)CC)C(C)C)C(=O)N[C@@H](C)C(=O)N[C@H](C(=O)N[C@@H](CC(C)C)C(=O)N[C@@H](C)C(=O)N[C@@H](CO)C(=O)N[C@@H](CCCCN)C(=O)N[C@@H](CC(C)C)C(=O)N[C@@H](CC(C)C)C(=O)O)[C@@H](C)O [VIVKAIATLASKLL] | 27.8 µM (≈ 40 µg/mL) |  | 55.6 µM (≈ 80 µg/mL) |  |  |  |  | MIC [15]: ≥ 55.6 µM
